The record followed here is patent US12485169B2, “Compounds” (GREY WOLF THERAPEUTICS LIMITED, priority 2018, dated 2025).

For this test, the target named is T1, Purified ERAP1 (37-941)-10His (ERAP1) (Homo sapiens, UniProt Q9NZ08).
T1 construct: Purified ERAP1 (37-941)-10His (ERAP1)
T1 sequence (Q9NZ08 37-941): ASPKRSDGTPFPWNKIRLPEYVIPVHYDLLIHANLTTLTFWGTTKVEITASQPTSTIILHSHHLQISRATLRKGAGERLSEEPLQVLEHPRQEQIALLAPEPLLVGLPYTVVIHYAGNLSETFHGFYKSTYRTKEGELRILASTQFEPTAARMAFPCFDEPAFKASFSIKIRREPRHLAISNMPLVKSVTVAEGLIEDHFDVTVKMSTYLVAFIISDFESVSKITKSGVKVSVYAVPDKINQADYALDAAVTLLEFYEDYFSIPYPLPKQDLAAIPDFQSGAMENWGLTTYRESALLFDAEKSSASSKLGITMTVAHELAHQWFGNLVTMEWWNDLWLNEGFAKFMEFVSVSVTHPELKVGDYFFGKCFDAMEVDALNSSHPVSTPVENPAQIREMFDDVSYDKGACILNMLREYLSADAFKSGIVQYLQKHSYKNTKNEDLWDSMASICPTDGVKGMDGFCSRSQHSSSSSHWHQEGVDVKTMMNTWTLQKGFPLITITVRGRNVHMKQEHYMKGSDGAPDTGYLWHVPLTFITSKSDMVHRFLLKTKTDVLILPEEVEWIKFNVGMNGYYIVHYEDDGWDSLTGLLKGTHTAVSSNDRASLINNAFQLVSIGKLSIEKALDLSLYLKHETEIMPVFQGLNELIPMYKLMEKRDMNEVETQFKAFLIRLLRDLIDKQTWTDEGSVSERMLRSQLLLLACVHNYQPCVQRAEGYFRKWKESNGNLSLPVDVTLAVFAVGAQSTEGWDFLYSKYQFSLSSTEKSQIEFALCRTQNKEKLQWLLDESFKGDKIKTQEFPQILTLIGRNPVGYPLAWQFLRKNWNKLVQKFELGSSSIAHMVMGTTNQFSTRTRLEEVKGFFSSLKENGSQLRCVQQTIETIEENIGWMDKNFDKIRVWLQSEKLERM
As to the kind of experiment: ERAP1 mediated hydrolysis of an amide substrate (10-mer inhibition assay), biochemical system. The settings on record: 10-mer substrate, 23° C., 1 h, excitation 279 nm / emission 355 nm; read-out: IC50 vs Decapeptide WRVYEKC(Dnp)ALK-acid (where Dnp is Dinitrophenyl maleimide) (10-mer).
With `CS(=O)(=O)c1cc(NS(=O)(=O)c2cc(C(=O)O)ccc2C2CC2)c(N2CCCCC2)cc1F` [Example 331, 4-cyclopropyl-3-(N-(4-fluoro-5-(methylsulfonyl)-2-(piperidin-1-yl)phenyl)sulfamoyl)benzoic acid], the half-inhibitory concentration (IC50) (commonly the concentration that inhibits the measured activity by half) is less than 500 nM.

As for `CS(=O)(=O)c1cc(NS(=O)(=O)c2cc(C(=O)O)ccc2C2CC2)c(N2CCCCC2)cc1Cl` [Example 332, 3-(N-(4-chloro-5-(methylsulfonyl)-2-(piperidin-1-yl)phenyl)sulfamoyl)-4-cyclopropylbenzoic acid], the IC50 is less than 500 nM.

As to `O=C(O)c1ccc(C2CC2)c(S(=O)(=O)Nc2cc(-n3cnnn3)c(F)cc2N2CCCCC2)c1` [Example 333, 4-cyclopropyl-3-(N-(4-fluoro-2-(piperidin-1-yl)-5-(tetrazol-1-yl)phenyl)sulfamoyl)benzoic acid], the concentration for half-maximal inhibition (IC50) is less than 500 nM.

`O=C(O)c1ccc(C2CC2)c(S(=O)(=O)Nc2cc(-n3cnnn3)c(Cl)cc2N2CCCCC2)c1` [Example 334, 3-(N-(4-chloro-2-(piperidin-1-yl)-5-(tetrazol-1-yl)phenyl)sulfamoyl)-4-cyclopropylbenzoic acid]: the IC50 was less than 500 nM.

For `[2H]C1([2H])C([2H])([2H])C1([2H])c1ccc(C(=O)O)cc1S(=O)(=O)Nc1cc(C#N)ccc1N1CCCCC1` [Example 335, 3-(N-(5-cyano-2-(piperidin-1-yl)phenyl)sulfamoyl)-4-(cyclopropyl-d5)benzoic acid], the IC50 was less than 500 nM.

`Cc1cc(C#N)cc(NS(=O)(=O)c2cc(C(=O)O)ccc2C2CC2)c1N1CCCCC1` [Example 336, 3-(N-(5-cyano-3-methyl-2-(piperidin-1-yl)phenyl)sulfamoyl)-4-cyclopropylbenzoic acid]: the IC50 was less than 500 nM.

Turning to `CC(C)(C)c1ccc(C(=O)O)cc1S(=O)(=O)Nc1cc(C#N)ccc1N1CCCCC1` [Example 337, 4-(tert-butyl)-3-(N-(5-cyano-2-(piperidin-1-yl)phenyl)sulfamoyl)benzoic acid], the IC50 was less than 5000 nM.

Take `C#Cc1ccc(C(=O)O)cc1S(=O)(=O)Nc1cc(C#N)ccc1N1CCCCC1` [Example 338, 3-(N-(5-cyano-2-(piperidin-1-yl)phenyl)sulfamoyl)-4-ethynylbenzoic acid]: the IC50 was more than 5000 nM.
